Experiments:
stromelysin = stromelysin (Homo sapiens, UniProt P08254); assay: inhibition of stromelysin (Cawston et al, acetylated 14C casein); type: biochemical; conditions: 37°, 16 hours, pH 7.5
Description: The casein was acetylated ^14 C casein prepared by the method of Cawston et al (ibid).

collagenase = target: T1, collagenase (Homo sapiens, UniProt P03956); assay: inhibition of collagenase (Cawston and Barrett, acetylated 14C collagen); type: biochemical; conditions: 37°, 16 hours, pH 7.5
T1 sequence (P03956 100-469): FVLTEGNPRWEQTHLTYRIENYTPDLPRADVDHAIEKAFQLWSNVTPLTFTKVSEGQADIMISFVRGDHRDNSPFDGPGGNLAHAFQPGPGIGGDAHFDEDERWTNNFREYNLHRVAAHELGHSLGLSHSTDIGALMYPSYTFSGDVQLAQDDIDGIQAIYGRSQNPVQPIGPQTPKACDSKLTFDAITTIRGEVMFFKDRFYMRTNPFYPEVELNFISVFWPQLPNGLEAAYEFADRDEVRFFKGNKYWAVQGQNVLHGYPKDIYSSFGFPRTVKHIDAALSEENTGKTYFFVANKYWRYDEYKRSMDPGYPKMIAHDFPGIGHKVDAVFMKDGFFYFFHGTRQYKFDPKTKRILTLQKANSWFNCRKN
Description: The collagen was acetylated ^14 C collagen prepared by the method of Cawston and Murphy, (Methods in Enzymology, 80, 711, 1981), hereby incorporated by reference. The samples were centrifuged to sediment undigested collagen, and an aliquot of the radioactive supernatant removed for assay on a scintillation counter as a measure of hydrolysis.

[1] = tested on: TNF α release from a human monocytic cell line, U937; assay: inhibition of PMA-stimulated TNF α release from U937 cells (TNF α ELISA); type: cell-based; conditions: U-937, PMA 50 nM, 18 hours at 37° C., read-out: concentration of test compound which inhibits the release of TNF α by 50% relative to the control culture (IC50)
Procedure: The ability of example compounds of the invention to inhibit the release of TNF was investigated. The assay is based on the ability of phorbol myristate acetate (PMA) to stimulate the release of TNF α from a human monocytic cell line, U937.
U937 cells cultured in RPMI 1640 medium +5% foetal calf serum are centifuged at 1000×g for 5 minutes and then resuspended in medium at 2×10^6 /mi. 1 ml of cell suspension is aliquoted into individual wells of 24-well plates. Test compounds are dissolved in dimethyl sulphoxide (DMSO) at a stock concentration of 100 mM, then diluted to 50×the final required concentration with RPMI 1640 medium. 20 μl of the diluted compounds are added to U937 cells in duplicate wells. TNF α release is stimulated by addition of PMA to the cells at a final concentration of 50 nM. Appropriate control cultures are set up in duplicate. The plates are incubated for 18 hours at 37° C., 5% CO2, then centrifuged at 1000×g for 5 minutes. A specific ELISA for TNF α obtained from British Bio-technology Products Limited, Abingdon, England is used to measure TNF α levels in the culture supernatants
The average concentration of test compound which inhibits the release of TNF α by 50% relative to the control culture was assessed.

[2] = tested on: TNF production by leucocytes; conditions: literature (Sampajo et al, 1991); cited from earlier work
serum TNF = assay: inhibition of endotoxin (LPS) induced TNF production in vivo (serum TNF by L929 cytotoxicity assay); parameters: species or system Male New Zealand rabbits
Procedure: The compound of Example 3 was assessed for its ability to inhibit release of endotoxin induced TNF production in vivo.
Male New Zealand rabbits, 2.5-3.0 kg, were anaesthetised with sodium pentobarbitone, 30 mg.kg^-1 via a marginal ear vein which was maintained by infusion at 18 mg.kg^-1.hr^-1 via a jugular vein. Following tracheotomy, the animals were ventilated, to maintain arterial blood […], and oxygen was added to the inspired air to maintain arterial blood PO2 above 100 mmHg. Both femoral veins were cannulated for the administration of endotoxin (LPS) and the infusion of test compound, 2.5 mg.kg^-1.hr^-1 at a rate of 6 ml.hr^-1, 15 minutes before the administration of LPS, 40 μg.kg^-1 i.v. bolus. Blood samples were collected from a femoral artery just before and at 30 minute intervals after the administration of LPS for a period of 4 hours.
The biological activity of TNF in serum test samples was determined using a cytotoxicity assay as described in Mathews, N. and Neale, M. L. in Lymphokines and Interferons, a Practical Approach, Eds. M. J. Clements, A. G. Morris, and A. J. H. Gearing, IRL Press, Oxford, UK.
100 μl volumes of L929 cell suspension at 10^5 cells/ml were dispensed into 96-well microtitre plates. The plates were incubated overnight to allow formation of an even monolayer. A series of dilutions of the test rabbit serum was made in a culture medium containing 2 μg/ml of actinomycin D to give a final concentration of 1 μg/ml when added to the cells. The L929 cells were incubated for 24 hours in the presence of test samples, and serially diluted human TNF α was used as the assay standard. After the incubation period, dead cells were removed by washing briefly with phosphate buffered saline, and remaining cells were fixed with 4% formaldehyde for 10 minutes. After washing the plates with water to remove the fixative, the cells were stained by the addition of 50 μl of 1% crystal violet to each well for 5 minutes. The plates were washed extensively with water and dried. Cells were solubilised by the addition of 100 μl/well of 30% acetic acid and the OD at 550 nm was determined. The TNF level in units/ml in the test samples was determined from the human TNF α standard curve. where 1 unit is the equivalent of 1 pg/ml human TNF α.

TNF gene transcription = conditions: literature; compared with corticosteroids, cyclosporin-A, FK506; cited from earlier work

stromelysin, sequence (P08254 100-477): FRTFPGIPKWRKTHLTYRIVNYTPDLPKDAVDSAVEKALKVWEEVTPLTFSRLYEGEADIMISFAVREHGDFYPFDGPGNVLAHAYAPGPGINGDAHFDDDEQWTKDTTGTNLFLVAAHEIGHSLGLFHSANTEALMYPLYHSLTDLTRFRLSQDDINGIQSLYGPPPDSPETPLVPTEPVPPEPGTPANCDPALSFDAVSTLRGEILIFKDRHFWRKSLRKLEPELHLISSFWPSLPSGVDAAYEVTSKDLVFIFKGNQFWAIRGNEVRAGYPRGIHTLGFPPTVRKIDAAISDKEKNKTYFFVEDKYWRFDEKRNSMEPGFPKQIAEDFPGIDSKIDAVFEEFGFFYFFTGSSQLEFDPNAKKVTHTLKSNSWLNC

| SMILES | IC50 (stromelysin) | IC50 (collagenase) | IC50 [1] | further results |
| --- | --- | --- | --- | --- |
| CNC(=O)[C@H](CCC(=O)OC)NC(=O)[C@H](CC(C)C)[C@H](CSc1ccccc1)C(=O)NO [Example 1, 3R-(3-Methoxycarbonyl-1S-methylcarbamoyl-propylcarbamoyl)-5-methyl-2-S-phenylsulfanylmethyl hexanohydroxamic acid] | 250 nM | 20 nM | – | – |
| CNC(=O)[C@H](CCC(=O)OC(C)(C)C)NC(=O)[C@H](CC(C)C)[C@H](CSc1ccc(O)cc1)C(=O)NO [Example 12, 2S-(4-Hydroxyphenylsulfanylmethyl)-3R-(3-tertbutoxycarbonyl-1S-methylcarbamoyl-propylcarbamoyl)-5-methyl-hexanohydroxamic acid] | 40 nM | 20 nM | < 50000 nM | – |
| O=C1CCC(N2C(=O)c3ccccc3C2=O)C(=O)N1 (centres unmarked) [Thalidomide] | – | – | – | inhibition of TNF production by leucocytes [2]: inhibit TNF production by leucocytes |
| CNC(=O)[C@H](CCC(=O)OC)NC(=O)[C@H](CC(C)C)[C@H](CSc1ccc(O)cc1)C(=O)NO [Example 3, 2S-(4-Hydroxyphenylsulfanylmethyl)-3R-(3-methoxycarbonyl-1S-methylcarbamoyl-propylcarbamoyl)-5-methyl-hexanohydroxamic acid] | 50 nM | 9 nM | < 50000 nM | Average % change in serum TNF level, LPS + test compound (serum TNF; 0 hrs from LPS bolus IV injection, infusion 2.5 mg.kg^-1.hr^-1 started 15 minutes before LPS 40 μg.kg^-1 i.v., n = 4): 0%; Average % change in serum TNF level, LPS + test compound (serum TNF; 1 hr from LPS bolus, infusion 2.5 mg.kg^-1.hr^-1, LPS alone (n = 5) +65): -58%; Average % change in serum TNF level, LPS + test compound (serum TNF; 2 hrs from LPS bolus, infusion 2.5 mg.kg^-1.hr^-1, LPS alone (n = 5) +55): -65%; Average % change in serum TNF level, LPS + test compound (serum TNF; 3 hrs from LPS bolus, infusion 2.5 mg.kg^-1.hr^-1, LPS alone (n = 5) -30): -99%; Average % change in serum TNF level, LPS + test compound (serum TNF; 4 hrs from LPS bolus, infusion 2.5 mg.kg^-1.hr^-1, LPS alone (n = 5) -100): -100% |
| CC(=O)CCCCn1c(=O)c2c(ncn2C)n(C)c1=O [pentoxyfilline] | – | – | – | specificity of inhibition of TNF gene transcription (TNF gene transcription): more specific inhibitors of TNF gene transcription |
| CNC(=O)[C@H](CCC(=O)OC)NC(=O)[C@H](CC(C)C)[C@H](CSc1cccs1)C(=O)NO [Example 2, 3R-(3-Methoxycarbonyl-1S-methylcarbamoyl-propylcarbamoyl)-5-methyl-2S-(thien-2-ylsulfanylmethyl)-hexanohydroxamic acid] | – | 15 nM | < 50000 nM | – |
